From patent US20240374552A1, “Compositions and Methods for Preventing or Reducing the Risk of Metabolic Syndrome” (priority 2021, published 2024)
Values after ≈ are worked out from the molar mass of the structure shown.

What was measured:
mice [1] = assay: Subacute toxicity, 14-day daily intragastric administration; assay type: in vivo
Protocol: Animal studies in male and female mice of the CDI strain, and male rats of the Wistar strain were used.
During the quarantine period (15 days) they were kept in a chamber with conditions of (22+2° C., 55+5% humidity and a light/dark cycle of 12:12 h), with food and water ad libitum. Prior to the start of the experiment, the animals (mice and rats) were deprived of food for 4 h, and recovered 2 h after the administration of the drug.
The test animals were randomly divided into experimental groups corresponding to different doses of the drug, as shown in Table 2.

in vivo = conditions: 10 mg, t1/2 (h)
rat = conditions: cited from earlier work
[2] = Acute oral gavage toxicity; assay type: in vivo
mice [3] = assay: Evaluation toxicity, 90-day daily intragastric administration in mice; assay type: in vivo; conditions: for Percentage of dead mice (%): purity min 95%
Protocol: To investigate the toxicity of tyrphostin AG17 the following doses were tested in mice, the animals were randomly divided into experimental groups corresponding to different doses of tyrphostin. Tyrphostin was administered intragastric via daily for 90 days, after 90 days, the mice were weighed and sacrificed by cervical dislocation.
In a second evaluation for the treatments with 5.50 mg/kg to 55.50 mg/kg of tyrphostin, using a lot tyrphostin AG17 with a minimum purity of 98% is used; the percentage of dead mice is reduced to 0% and in the case of the treatment with 100.00 mg/kg, the deaths are reduced to 10%.

mice [4] = assay: as above; assay type: in vivo; conditions: for Percentage of dead mice (%): purity min 95%; remark: listed apart in the source
[5] = pH 7.2; cited from earlier work
[6] = in vivo, 10 mg

In the case of CC(C)(C)c1cc(C=C(C#N)C#N)cc(C(C)(C)C)c1O [tyrphostin AG17, Tyrphostin AG17], the “Death, share of the population” value (mice [1]; 100.00 mg/kg) is reported as 40%, the “Time until recovery from lethargy” value (mice [1]; 5.50 to 55.50 mg/kg) is reported as 12 h and the “Signs of subacute toxicity presented” value (mice [1]; AT1: 0.175 mg/Kg daily 14 days) is reported as “No apparent signs”. For the same compound, the “Signs of subacute toxicity presented” value (mice [1]; AT2: 0.55 mg/Kg daily 14 days) was “No apparent signs”, the “Signs of subacute toxicity presented” value (mice [1]; AT3: 1.75 mg/Kg daily 14 days) was “No apparent signs” and the “Signs of subacute toxicity presented” value (mice [1]; AT4: 5.50 mg/Kg daily 14 days) was “Lethargy (10%)”. The “Lethargy, share of the population” value (mice [1]; AT4 group, 5.50 mg/kg) was 10%, the “Signs of subacute toxicity presented” value (mice [1]; AT5: 55.50 mg/Kg daily 14 days) was “Lethargy (20%)” and the “Lethargy, share of the population” value (mice [1]; AT5 group, 55.50 mg/kg) was 20%. For the same compound, the “Signs of subacute toxicity presented” value (mice [1]; AT6: 100.00 mg/Kg daily 14 days) was “Death (40%)”, the half-life (in vivo; Geometric Mean) was 80.6 h and the half-life (in vivo; Mean) was 82.2 h. The half-life (in vivo; Median) was 75.2 h, the “oral LD50” value (rat) was 87 mg/kg and the LD50 ([2]; C57BL/6, mouse, in vivo) was 33.3 mg/kg. For the same compound, the Behavioral alterations ([2]; doses 1.75, 5.5 and 17.5 mg/kg) was “inhibition in locomotion and piloerection”, the Lethal effect ([2]; doses of 1.75, 5.5 and 17.5 mg/kg) was “no lethal effect observed” and the Mortality ([2]; doses of 28, 40 and 55.5 mg/kg) was “increase in mortality”. The “Percentage of dead mice (%)” value (mice [3]; T1: 0.0001 mg/Kg daily 90 days) was 0%, the “Percentage of dead mice (%)” value (mice [3]; T3: 0.001 mg/Kg daily 90 days) was 0% and the “Percentage of dead mice (%)” value (mice [3]; T5: 0.175 mg/Kg daily 90 days) was 0%. For the same compound, the “Percentage of dead mice (%)” value (mice [3]; T7: 0.76 mg/Kg daily 90 days) was 0%, the “Percentage of dead mice (%)” value (mice [3]; T8: 1.70 mg/Kg daily 90 days) was 0% and the “Percentage of dead mice (%)” value (mice [3]; T9: 1.75 mg/Kg daily 90 days) was 0%. The “Signs of toxicity during 90-day treatment” value (mice [3]; doses below 1.75 mg/kg) was “no apparent signs of toxicity”, the “Percentage of dead mice, second evaluation” value (mice [4]; 5.50 mg/kg to 55.50 mg/kg, lot with minimum purity of 98%) was 0% and the “Percentage of dead mice (deaths), second evaluation” value (mice [4]; 100.00 mg/kg, lot with minimum purity of 98%) was 10%. The “Percentage of dead mice (%)” value (mice [4]; T2: 0.000175 mg/Kg daily 90 days) was 0%, the “Percentage of dead mice (%)” value (mice [4]; T4: 0.0175 mg/Kg daily 90 days) was 0% and the “Percentage of dead mice (%)” value (mice [4]; T6: 0.18 mg/Kg daily 90 days) was 0%. The “Percentage of dead mice (%)” value (mice [4]; T10: 5.50 mg/Kg daily 90 days) was 10%, the “Percentage of dead mice (%)” value (mice [4]; T11: 17.50 mg/Kg daily 90 days) was 10% and the “Percentage of dead mice (%)” value (mice [4]; T12: 25.00 mg/Kg daily 90 days) was 0%. The “Percentage of dead mice (%)” value (mice [4]; T12: 25.00 mg/Kg daily 90 days, listed as tyrphostin) was “did not show any dead mice”, the “Percentage of dead mice (%)” value (mice [4]; T13: 28.00 mg/Kg daily 90 days) was 10% and the “Percentage of dead mice (%)” value (mice [4]; T14: 40.00 mg/Kg daily 90 days) was 10%. The “Percentage of dead mice (%)” value (mice [4]; T15: 50.00 mg/Kg daily 90 days) was 20%, the “Percentage of dead mice (%)” value (mice [4]; T16: 55.50 mg/Kg daily 90 days) was 20% and the “Percentage of dead mice (%)” value (mice [4]; T17: 100.00 mg/Kg daily 90 days) was 40%. For the same compound, the Solubility [5] was ~150 µg/mL (≈ 531 µM), the “Vdapa (L), Geometric Mean” value [6] was 22.038 L and the “Vdapa (L), Mean” value [6] was 22.537 L. The “Vdapa (L), Median” value [6] was 22.494 L.
